One experiment deals with hDGAT2 (Homo sapiens (Human), UniProt Q96PD7). Nature of the experiment: In vitro DGAT2 assay, hDGAT2 membrane fraction, [14C]decanoyl-CoA scintillation readout. The class given is biochemical. Conditions: geometric mean; FLAG-hDGAT2 membrane fraction; 2 h preincubation; read-out: IC50 for inhibition of DGAT2. How it is done: Recombinant baculovirus for the FLAG-tagged hDGAT2 was generated in SF9 insect cells using Bac-to-Bac baculovirus expression system (Invitrogen) according to the manufacturer's protocol. For the expression of hDGAT2, SF9 cells (20 L) grown in Sf90011 media were infected with hDGAT2 baculovirus at a multiplicity of infection of 1 in a Wave Bioreactor System 20/50P wave bag (GE Healthcare). After 40 hours of infection, the cells were then harvested by centrifugation at 5,000×g. The cell pellets were washed by resuspending in phosphate buffered saline (PBS) and collected by centrifugation at 5,000×g. The cell paste was flash frozen in liquid N2 and stored at −80° C. until needed. All operations below were at 4° C. unless otherwise noted. The cells were resuspended in lysis buffer (50 mM Tris-HCl, pH 8.0, 250 mM sucrose) including 1 mM ethylenediaminetetraacetic acid (EDTA) and the complete protease inhibitor cocktail (Roche Diagnostics) at a ratio of 3 ml buffer per 1 g cell paste. The cells were lysed by dounce homogenizer. The cell debris was removed by centrifugation at 1,000×g for 20 min, and the supernatant was centrifuged at 100,000×g for 1 hour. The resulting pellet was rinsed three times by filling ultracentrifuge tubes to the top with ice cold PBS before decanting. The washed pellet was resuspended with gentle stirring for 1 hour in lysis buffer containing 8 mM 3-[(3-cholamidopropyl)dimethylammonio]-1-propanesulfonate (CHAPS) at a ratio of 1 mL buffer per 1 g of original cell paste and centrifuged again at 100,000×g for 1 hour. The resulting supernatant was aliquotted, flash frozen in liquid N2, and stored at −80° C. until use.
For determination of IC50 values, the reactions were carried out in 384-well white Polyplates (Perkin Elmer) in a total volume of 20 μL. To […] compounds dissolved in 100% DMSO and spotted at the bottom of each well, 5 μL of 0.04% bovine serum albumin (BSA) (fatty acid free, Sigma Aldrich) was added and the mixture was incubated at room temperature for 20 minutes. To this mixture, 10 μL of hDGAT2 membrane fraction (0.01 mg/mL) diluted in 100 mM Hepes-NaOH, pH 7.4, 20 mM MgCl2 containing 200 nM methyl arachidonyl fluorophosphonate (Cayman Chemical; dried from ethyl acetate stock solution under argon gas and dissolved in DMSO as 5 mM stock) was added. After this mixture was preincubated at room temperature for 2 hours, DGAT2 reactions were initiated by the addition of 4 μL of substrates containing 30 μM [1-^14C]decanoyl-CoA (custom-synthesized by Perkin Elmer, 50 mCi/mmol) and 125 μM 1,2-didecanoyl-sn-glycerol (Avanti Polar Lipids) dissolved in 12.5% acetone. The reaction mixtures were incubated at room temperature for 40 min and the reactions were stopped by addition of 5 μL of 1% H3PO4. After the addition of 45 μL MicroScint-E (Perkin-Elmer), plates were sealed with Top Seal-A covers (Perkin-Elmer) and phase partitioning of substrates and products was achieved using a HT-91100 microplate orbital shaker (Big Bear Automation, Santa Clara, Calif.). Plates were centrifuged at 2,000×g for 1 min in an Allegra 6R Centrifuge (Beckman Coulter) and then were sealed again with fresh covers before reading in a 1450 Microbeta Wallac Trilux Scintillation Counter (Perkin Elmer). DGAT2 activity was measured by quantifying the generated product [^14C]tridecanoylglycerol in the upper organic phase.
Inhibitors were tested at eleven different concentrations to generate IC50 values for each compound.

For experiment [1], the target named is DGAT2 in primary human hepatocytes (Homo sapiens (Human), UniProt Q96PD7). As to the kind of experiment: IC50 for DGAT2 inhibitors in human hepatocytes, [14C]-glycerol incorporation into lipids. It is filed as cell-based. Conditions: average; cryopreserved human hepatocytes; selective DGAT1 inhibitor 3 μM in all wells; 3 hour incubation; read-out: IC50 in primary human hepatocytes. How it is done:
For evaluation of the effects of DGAT2 inhibitors in a cell-based setting, cryopreserved human hepatocytes (Lot QOC and NON, Celsis, Chicago, Ill.) were thawed and plated onto type I collagen-coated plates according to the manufacturer's instructions. After 24 hours overnight recovery period, the cells were overlayed with media containing 250 μg/ml Matrigel (BD Biosciences, San Jose, Calif.). The following day, media was aspirated and replaced with serum-free Williams Media E (Life Technologies, Grand Island, N.Y.) containing 400 μM sodium dodecanoate (Sigma-Aldrich, St. Louis, Mo.). Forty minutes later, DGAT2 inhibitors (prepared as 100× stocks in 25% DMSO, 75% Williams' Media E) were added to the desired final concentration. […] After a 20 minute preincubation, 0.2 μCi [1,3-^14C]-glycerol glycerol (American Radio Chemicals, St. Louis, Mo.) was added to each well and mixed by gentle pipetting prior to a 3 hour incubation. At this point, media was aspirated and the cells were lysed in isopropyl alcohol: tetrahydrofuran (9:1) prior to centrifugation at 3000 rpm for 5 minutes. Radiolabeled lipids were resolved using a 2-solvent system by thin layer chromatography using standard technique (solvent 1 contained ethyl acetate:isopropyl alcohol:chloroform:methanol:0.25% potassium chloride in water (100:100:100:40.2:36.1, v/v/v/v) and solvent 2 contained hexane: diethyl ether: acetic acid (70:27:3, v/v/v)). After separation, radiolabeled lipids were visualized using a Molecular Dynamics' PhosphorImager system. The half maximal inhibitory concentrations (IC50 values) were determined using GraphPad Prism (GraphPad Software, Inc., La Jolla, Calif.).
Table 4 below provides IC50 values for the Examples in accordance with the above-described assay. Results were reported as average IC50 values, low and high IC50 range (95% confidence interval).

Chain of hDGAT2 (Q96PD7 whole entry): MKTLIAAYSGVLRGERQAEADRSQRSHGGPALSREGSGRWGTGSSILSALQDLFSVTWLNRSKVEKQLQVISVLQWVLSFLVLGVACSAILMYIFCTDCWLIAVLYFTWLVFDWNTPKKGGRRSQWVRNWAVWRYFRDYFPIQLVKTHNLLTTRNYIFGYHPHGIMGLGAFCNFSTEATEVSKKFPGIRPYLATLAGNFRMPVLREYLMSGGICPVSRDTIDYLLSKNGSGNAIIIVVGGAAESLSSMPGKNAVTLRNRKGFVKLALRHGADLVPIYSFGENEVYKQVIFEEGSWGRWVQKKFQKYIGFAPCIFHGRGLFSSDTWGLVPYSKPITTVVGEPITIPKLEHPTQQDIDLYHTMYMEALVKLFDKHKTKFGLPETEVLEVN
Chain of DGAT2 in primary human hepatocytes (Q96PD7 whole entry): as above

In general, IC50 refers to the concentration needed to halve the response being measured. Regarding `CCOc1ccccc1O[C@@H]1CCCN(c2ncc(C(=O)NCc3ccc(C(=O)O)cc3)cn2)C1` [Example 18.1, (R)-4-((2-(3-(2-ethoxyphenoxy)piperidin-1-yl)pyrimidine-5-carboxamido)methyl)benzoic acid], the 50% inhibitory concentration (IC50) at hDGAT2 was found to be 165 nM; in experiment [1] it was 116 nM. As for `CCOc1ccccc1O[C@@H]1CCCN(c2ncc(C(=O)N[C@H]3CCC[C@H]3C(=O)O)cn2)C1` [Example 6, (1R,2S)-2-(2-((R)-3-(2-ethoxyphenoxy)piperidin-1-yl)pyrimidine-5-carboxamido)cyclopentane-1-carboxylic acid], the results for the IC50 (on hDGAT2; in experiment [1]) were 222 nM and 57.8 nM, respectively. In the same order, the values of `CCOc1ccccc1O[C@@H]1CCCN(c2ncc(C(=O)NCc3ccc(C(C)C(=O)O)cc3)cn2)C1` (single isomer, unassigned) [Example 15] are 2.4 nM and 78.8 nM. On the same counts, the results for `CCOc1ccccc1O[C@@H]1CCCN(c2ncc(C(=O)NCc3ccc(C(=O)O)cc3C)cn2)C1` [Example 13, (R)-4-((2-(3-(2-ethoxyphenoxy)piperidin-1-yl)pyrimidine-5-carboxamido)methyl)-3-methylbenzoic acid] are 45.2 nM and 20.7 nM. On the same counts, the results for `CCOc1ccccc1O[C@@H]1CCCN(c2ncc(C(=O)NCc3cc(C(=O)O)ccc3F)cn2)C1` [Example 10, (R)-3-((2-(3-(2-ethoxyphenoxy)piperidin-1-yl)pyrimidine-5-carboxamido)methyl)-4-fluorobenzoic acid] are 87.3 nM and 10.4 nM. Regarding `CCOc1ccccc1O[C@@H]1CCCN(c2ncc(C(=O)N[C@H]3CCC[C@H]3C(=O)O)cc2F)C1` [Example 5, (1R,2S)-2-(6-((R)-3-(2-ethoxyphenoxy)piperidin-1-yl)-5-fluoronicotinamido)cyclopentane-1-carboxylic acid], the values for the IC50 (on hDGAT2; in experiment [1]) were 66.6 nM and 8.4 nM, respectively. On the same counts, the results for `CCOc1ccccc1O[C@@H]1CCCN(c2ncc(C(=O)NCc3cc(OC)cc(C(=O)O)c3)cn2)C1` [Example 2, (R)-3-((2-(3-(2-ethoxyphenoxy)piperidin-1-yl)pyrimidine-5-carboxamido)methyl)-5-methoxybenzoic acid] are 123 nM and 11.5 nM.

Take `CCOc1ccccc1O[C@@H]1CCCN(c2ncc(C(=O)N[C@H](C)c3cccc(C(=O)O)c3)cn2)C1` [Example 3, 3-((R)-1-(2-((R)-3-(2-ethoxyphenoxy)piperidin-1-yl)pyrimidine-5-carboxamido)ethyl)benzoic acid]: the 50% inhibitory concentration (IC50) turned out to be 88.4 nM on hDGAT2 and 29.2 nM in experiment [1].

With `CCNC(=O)c1cnc(N2CCC[C@@H](Oc3ccccc3OCC)C2)nc1` [Example 4, (R)-2-(3-(2-ethoxyphenoxy)piperidin-1-yl)-N-ethylpyrimidine-5-carboxamide], the IC50 on hDGAT2 is 35 nM; in experiment [1], 6.6 nM. In the same order, the values of `CCOc1ccccc1O[C@@H]1CCCN(c2ncc(C(=O)NCCc3cn[nH]c3O)cn2)C1` [Example 20.8, (R)-2-(3-(2-ethoxyphenoxy)piperidin-1-yl)-N-(2-(5-hydroxy-1H-pyrazol-4-yl)ethyl)pyrimidine-5-carboxamide] are 29.3 nM and 37.8 nM. In the same order, the values of `CCOc1ccccc1O[C@@H]1CCCN(c2ncc(C(=O)NCc3cccc(C(=O)O)c3)cn2)C1` [Example 1, (R)-3-((2-(3-(2-ethoxyphenoxy)piperidin-1-yl)pyrimidine-5-carboxamido)methyl)benzoic acid] are 91.6 nM and 11.2 nM. On the same counts, the results for `CCOc1ccccc1O[C@@H]1CCCN(c2ncc(C(=O)NCc3cc(C)cc(C(=O)O)c3)cn2)C1` [Example 16, (R)-3-((2-(3-(2-ethoxyphenoxy)piperidin-1-yl)pyrimidine-5-carboxamido)methyl)-5-methylbenzoic acid] are 47.7 nM and 45 nM. In the case of `CCOc1ccccc1O[C@@H]1CCCN(c2ncc(C(=O)NCc3nc(=O)[nH][nH]3)cn2)C1` [Example 20.5, (R)-2-(3-(2-ethoxyphenoxy)piperidin-1-yl)-N-((5-oxo-2,5-dihydro-1H-1,2,4-triazol-3-yl)methyl)pyrimidine-5-carboxamide], the half-inhibitory concentration (IC50) at hDGAT2 came out at 68 nM; in experiment [1], 81.6 nM. On the same counts, the results for `CCOc1ccccc1O[C@@H]1CCCN(c2ncc(C(=O)N3CC[C@H]3C(N)=O)cn2)C1` [Example 20.10, (S)-1-(2-((R)-3-(2-ethoxyphenoxy)piperidin-1-yl)pyrimidine-5-carbonyl)azetidine-2-carboxamide] are 170 nM and 59.8 nM. `CCOc1ccccc1O[C@@H]1CCCN(c2ncc(C(=O)NCc3ccnc(C(=O)O)c3)cc2F)C1` [Example 8, (R)-4-((6-(3-(2-ethoxyphenoxy)piperidin-1-yl)-5-fluoronicotinamido)methyl)picolinic acid]: the 50% inhibitory concentration (IC50) at hDGAT2 was 9.7 nM; in experiment [1] it was 51.7 nM. On the same counts, the results for `CCOc1ccccc1O[C@@H]1CCCN(c2ncc(C(=O)NCc3ccccc3CC(=O)O)cn2)C1` [Example 18.3, (R)-2-(2-((2-(3-(2-ethoxyphenoxy)piperidin-1-yl)pyrimidine-5-carboxamido)methyl)phenyl)acetic acid] are 182 nM and 499 nM. On the same counts, the results for `CCOc1ccccc1O[C@@H]1CCCN(c2ncc(C(=O)NCc3cc(C(=O)O)cnc3C)cn2)C1` [Example 12, (R)-5-((2-(3-(2-ethoxyphenoxy)piperidin-1-yl)pyrimidine-5-carboxamido)methyl)-6-methylnicotinic acid] are 62.3 nM and 67.5 nM.

With `CCOc1ccccc1O[C@@H]1CCCN(c2ncc(C(=O)NCCn3cncn3)cn2)C1` [Example 19.10, (R)-N-(2-(1H-1,2,4-triazol-1-yl)ethyl)-2-(3-(2-ethoxyphenoxy)piperidin-1-yl)pyrimidine-5-carboxamide], the IC50 at hDGAT2 worked out at 32.4 nM. Same read-out and setting: the figure for `CCOc1ccccc1O[C@@H]1CCCN(c2ncc(C(=O)NC(C)(C)CC(N)=O)cn2)C1` [Example 19.17, (R)-N-(4-amino-2-methyl-4-oxobutan-2-yl)-2-(3-(2-ethoxyphenoxy)piperidin-1-yl)pyrimidine-5-carboxamide] is 12.2 nM; for `CCOc1ccccc1O[C@@H]1CCCN(c2ncc(C(=O)N(C)C)cn2)C1` [Example 20.3, (R)-2-(3-(2-ethoxyphenoxy)piperidin-1-yl)-N,N-dimethylpyrimidine-5-carboxamide] it is 104 nM.

The values above are taken from patent US9789110B2, “Diacylglycerol acyltransferase 2 inhibitors” (PFIZER INC., priority 2014, dated 2017).
